Laboratory results taken from patent US20070191414A1, “Novel isoamido-substituted hydroxy-6-phenylphenanthridines” (Altana Pharma AG, priority 2004, published 2007).

Target: T1, PDE4B2 (Homo sapiens, UniProt Q07343)
T1 construct: made in house; host or cells: SF21 insect cells (baculovirus; virus prepared in SF9 cells)
Test: Inhibition of PDE4B2 activity, modified [3H]cAMP SPA (scintillation proximity assay)
Format: biochemical
Details: recombinant PDE4B2 expressed in SF21 insect cells; 0.5 μM cAMP; 15 min at 37° C.; read-out: Inhibition of the PDE4 activity, −log IC50(mol/l) (converted)
Method: The PDE4B2 (GB no. M97515) was a gift of Prof. M. Conti (Stanford University, USA). It was amplified from the original plasmid (pCMV5) via PCR with primers. Rb9 (5′- […] -3′) and Rb 10 (5′- […] -3′) and cloned into the pCR-Bac vector (Invitrogen, Groningen, NL).
The recombinant baculovirus was prepared by means of homologous recombination in SF9 insect cells. The expression plasmid was cotransfected with Bac-N-Blue (Invitrogen, Groningen, NL) or Baculo-Gold DNA (Pharmingen, Hamburg) using a standard protocol (Pharmingen, Hamburg). Wt virus-free recombinant virus supernatant was selected using plaque assay methods. After that, high-titre virus supernatant was prepared by amplifying 3 times. PDE was expressed in SF21 cells by infecting 2×10^6 cells/ml with an MOI (multiplicity of infection) between 1 and 10 in serum-free SF900 medium (Life Technologies, Paisley, UK). […]
The SF21 insect cells were resuspended, at a concentration of approx. 10^7 cells/ml, in ice-cold (4° C.) homogenization buffer (20 mM Tris, pH 8.2, containing the following additions: 140 mM NaCl, 3.8 mM KCl, 1 mM EGTA, 1 mM MgCl2, 10 mM β-mercaptoethanol, 2 mM benzamidine, 0.4 mM Pefablock, 10 μM leupeptin, 10 μM pepstatin A, 5 μM trypsin inhibitor) and disrupted by ultrasonication. […] The protein content was determined by the Bradford method (BioRad, Munich) using BSA as the standard. […]

T1 sequence (Q07343 1-564 isoform Q07343-2): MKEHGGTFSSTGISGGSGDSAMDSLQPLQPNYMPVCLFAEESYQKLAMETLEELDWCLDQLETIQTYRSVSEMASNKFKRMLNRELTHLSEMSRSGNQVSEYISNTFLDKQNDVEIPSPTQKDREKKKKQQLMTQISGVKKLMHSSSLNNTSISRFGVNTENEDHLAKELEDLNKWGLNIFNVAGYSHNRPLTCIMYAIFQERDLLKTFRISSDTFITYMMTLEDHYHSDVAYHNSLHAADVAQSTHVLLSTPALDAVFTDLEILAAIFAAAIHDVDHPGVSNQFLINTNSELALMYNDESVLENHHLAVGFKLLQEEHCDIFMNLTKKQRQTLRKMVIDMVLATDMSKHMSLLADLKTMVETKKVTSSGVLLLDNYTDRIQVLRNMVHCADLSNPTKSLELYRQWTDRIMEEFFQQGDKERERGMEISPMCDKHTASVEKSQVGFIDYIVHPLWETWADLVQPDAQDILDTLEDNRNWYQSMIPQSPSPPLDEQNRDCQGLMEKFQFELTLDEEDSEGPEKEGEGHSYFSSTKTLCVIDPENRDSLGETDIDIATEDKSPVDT

CCOc1cc2c(cc1OC)C(c1cccc(NC(=O)CCNC(N)=O)c1)=N[C@@H]1CC[C@@H](O)C[C@H]21 (racemic) [Compound 19, N-[3-((2RS,4aRS,10bRS)-9-Ethoxy-2-hydroxy-8-methoxy-1,2,3,4,4a,10b-hexahydro-phenanthridin-6-yl)-phenyl]-3-ureido-propionamide]
IC50: 1.48 nM
